# Measured values taken from a melting point compilation (Tetko et al.; mined from patent text by program, amines drawn as free bases though some values may be those of a salt).
row,melting point [°C],Compound
1,> 300,O=C1c2ccccc2C(=O)N1c1ccc(N2C(=O)c3ccccc3C2=O)c(O)c1
2,178 to 180,CCOC(=O)c1cn(-c2nc(NC(C)(C)CC(C)(C)C)ccc2F)c2c(Cl)c(F)c(F)cc2c1=O
3,144 to 145,COc1cc(C=C(C)C(=O)O)ccc1O
4,132,CCOC(=O)C1=C(N)N=C(OCC)C(C(=O)OCC)C1c1ccc(SC)cc1 (stereo not given)
5,233,CCOC(N)=C(C#N)C#N
6,218 to 234,CC(C)(C)C(=O)Nc1nc(O)c2c(n1)NCC(CCC1CCC(C(=O)O)CC1)C2 (stereo not given)
7,74,Cc1cccc(C2SCCCS2)n1
8,156 to 159,CCCn1nc(C(C)C)c(C(N)=O)c1Cc1ccc(-c2ccccc2-c2nnn[nH]2)cc1
9,62 to 65,CC(C)n1c(/C=C/C(O)CC(O)CC(=O)OC(C)(C)C)c(-c2ccc(F)cc2)c2ncccc21 (stereo not given)
10,152,CC(C)(C)OC(=O)NCC(=O)OCCCNc1ccc(O)c2c1C(=O)c1c(O)cccc1C2=O
11,199 to 200,CC/C(=N\OC(F)F)c1ccc(Cl)c2nc3n(c12)CCCN3c1c(C)nc(OC)nc1C
12,75 to 76,OCCc1ccc(Cl)cc1CO
13,177 to 178,CNC(=S)NN1Cc2c(C)ccc(C)c2C1
14,127,O=[N+]([O-])c1c(NCCCO)cc(Cl)cc1NCCCO
15,203 to 205,OCCOc1cccc(-c2n[nH]c3c2Cc2ccccc2-3)c1
16,174,COCCOC(=O)COc1ccc(C(=O)[C@H](COC(C)(C)C)NC(=O)c2ccc(C(=N)NC(=O)OC(C)(C)C)cc2)cc1
17,> 270,CNCc1cccc(C2CCN(c3c(F)c(N)c4c(=O)c(C(=O)O)cn(C5CC5)c4c3F)C2)c1 (stereo not given)
18,100 to 102,CCCC(=O)C=CC(=O)O
19,173 to 175,CCCC12CCC(=O)C=C1c1c(cc(OC)c(Cl)c1Cl)C2O (stereo not given)
20,164 to 165,Nc1ccnc(/C=C/c2ccccc2)c1
21,76 to 77,CCC(CO)Nc1c(-c2c(F)cc(F)cc2F)c(Cl)nc2ncnn12 (stereo not given)
22,78 to 80,COc1ccc(CNS(=O)(=O)CCCCl)cc1
23,215 to 218,O=C(O)C1Cc2c(c(Cl)cc3c(-c4ccc(F)cc4)noc23)O1 (stereo not given)
24,72 to 78,CN(C)c1ccc(C(c2ccccc2)c2c(C(=O)O)[nH]c3ccccc23)cc1 (stereo not given)

row,melting point [°C],Compound
1,136 to 139,C=CCOc1ccc2c(C)cc(=O)oc2c1C(=O)C=Cc1ccccc1
2,62 to 64,CCOC(=O)C(C)Oc1ncn(-c2ccc(OC)cc2)n1 (stereo not given)
3,169 to 170,O=C(Cc1ccccc1)c1c(O)c2cccnc2n(-c2ccccc2)c1=O
4,171 to 172,c1ccc(-c2cc3ccccc3s2)cc1
5,233,CCOc1nc(NC(C)=O)nc2ccc(Cl)nc12
6,92.5 to 94,CCNc1cc(Cl)c(C(F)(F)F)cc1[N+](=O)[O-]
7,54 to 57,COC(=O)[C@H](Cc1c[nH]c2ccccc12)NC(=O)CCC(=O)[C@H](Cc1ccccc1)NC(=O)OC(C)(C)C
8,44.5 to 45.5,CCCCCCCCCCCCCCCCSCC1(CNS(=O)(=O)CCCCl)CCCO1 (stereo not given)
9,182 to 184,COc1cccc(OC)c1C(=O)NCC(=O)N1c2ccccc2N(Cc2ccccc2)C(=O)[C@H]2CCC[C@H]21 (relative stereo)
10,34 to 44,CCCCCCCCCCCCCCCCCC1OCC(COC(O)CCC)O1 (stereo not given)
11,126,CC1C(c2ccccc2)OC(C)(C)N1C(=O)C(Cl)Cl (stereo not given)
12,170 to 173,Cc1sc2nc(C=O)c(C)c(=O)n2c1C
13,208 to 211,CC(=O)Nc1nc2ccnc(-c3cccc(NS(=O)(=O)c4ccc(C)cc4)c3)n2n1
14,155 to 157,CC(C)(C)OC(=O)N1C[C@@H]2OCc3cnnn3[C@H]2C1
15,172 to 173,COC(=O)CN1CCN(CC(=O)OC)[C@@H](C(N)=O)[C@H]1C(N)=O
16,201 to 202,O=[N+]([O-])c1cc(Cl)c2cccnc2c1O
17,185 to 186,CC1(C)CN(C2CCN(c3cc(Cl)cc(Cl)c3)C2=O)C1=O (stereo not given)
18,142 to 144,COc1nc2ccc(Br)cc2cc1C(c1ccccc1)n1cccn1 (stereo not given)
19,47 to 49,CC(C)NCCCCCCOc1ccc(OCc2ccccc2)cc1
20,57 to 58,CCCCNc1c(C(=O)OCC)c(C)nc2nnsc12
21,74,CCn1c(=O)n(/C(C)=C\SC)c2ccccc21
22,157 to 159,COc1cc(N)c(Cl)cc1C(=O)NCC1CCN(CCCCCC(=O)c2cc3ccccc3s2)CC1
23,108 to 110,CC(C)(C)C(=O)OCn1nc2ccc(OCCCN3CCC(OC(c4ccccc4)c4ccccc4)CC3)nn2c1=O
24,117 to 120,CCN(CC)CC#CC(=O)Nc1ccc2ncc(C#N)c(Nc3ccc(F)c(Cl)c3)c2c1

row,melting point [°C],Compound
1,247 to 248,Cc1ccc(C(=O)c2[nH]c3ccc(Cl)cc3c2CC(=O)O)nc1
2,180 to 183,NS(=O)(=O)c1ccc(-c2cnn(CC(F)(F)F)c(=O)c2-c2ccc(Cl)c(F)c2)cc1
3,160,CCCCc1ccc(OC)c(-c2csc(NC(=O)c3ccc(C(=O)O)cc3)n2)c1
4,112 to 114,CC(C)c1cccc(C(C)C)c1NC(=O)N(Cc1ccccc1)CC1(c2ncccn2)CCCCC1
5,116 to 118,CCCC(NS(=O)(=O)c1ccc(Cl)cc1)C(=S)Nc1ccc(CCC(=O)OC)cc1 (racemic)
6,137 to 140,CC(C)(C)CC(C)(C)n1scc(Cl)c1=O
7,101 to 102,Nc1n[nH]c2c(C(F)(F)F)cccc12
8,73 to 74,CSc1ccc(C(=O)C#CCO)cc1
9,210 to 211,Oc1cccc(/C=C/c2nc3ccccc3s2)c1
10,110 to 112,C=CCN1C(=O)c2ccccc2Oc2nc(Cl)ccc21
11,159 to 161,O=C(c1ccc([N+](=O)[O-])cc1[N+](=O)[O-])N1CCOCC1
12,158,CC(C)N1CCC(n2nc(-c3c(-c4ccccc4)nn4ccccc34)ccc2=O)CC1
13,159 to 160,O=C1CCCc2nc3sccc3c(NCc3ccccc3)c21
14,153 to 156,CC(C)(C)CC(C)(C)c1cc(-n2nc3ccc([N+](=O)[O-])cc3n2)c(O)c(C(C)(C)c2ccccc2)c1
15,200,Nc1nc2cc3c(cc2s1)OCO3
16,152 to 155,CCCCCCCCCCCCCCCC(N=C=O)S(=O)(=O)c1ccc2ccccc2c1 (stereo not given)
17,154 to 156,ON=C(c1ccccc1)c1ccc(OCCCCOc2ccc(C(=NO)c3ccccc3)cc2)cc1
18,203 to 205,CCCC(CCC)C(=O)N[C@@H](Cc1ccccc1)C(=O)N[C@H]1CCOC1=O
19,188 to 189,CC(=O)c1cnc(O)c(Cl)c1
20,137 to 140,COc1nc(OC)nc(-n2c(C(F)(F)F)nc3cc(C)ccc32)n1
21,235 to 237,CC(=O)NCC(C)(C)c1ccc2nc(-c3c[nH]cn3)[nH]c2c1
22,130 to 150,COc1cc(C(=O)N2CCC(CCN3CCC(O)(c4nc5ccccc5n4Cc4ccc(F)cc4)CC3)(c3ccc(Cl)c(Cl)c3)C2)cc(OC)c1OC (stereo not given)
23,157 to 159,COc1ccc(S(=O)(=O)Nc2nc(-c3cccc([N+](=O)[O-])c3)cs2)cc1
24,87 to 88,Cc1cnc(N2CCc3ccccc3CC2)c([N+](=O)[O-])c1

row,melting point [°C],Compound
1,224,CSc1nccc(-c2nc(=O)c3ccccc3s2)n1
2,176 to 177,Cc1ccc(OC(=O)c2cc3cc(S(=O)(=O)N(C)C)c(Cl)c(Cl)c3o2)cc1
3,82 to 83,COCC1CN(c2ccc(C3CCC(OC)CC3)cc2)C(=O)O1 (stereo not given)
4,250,CC1(O)CCCc2nc3ccccc3c(N)c21 (stereo not given)
5,149 to 151,CCOC(=O)CC[C@H](NC(=O)c1ccc(CNCc2cnc3nc(NC(=O)C(C)(C)C)nc(O)c3c2)cc1)C(=O)OCC
6,72 to 80,COc1cc(N2CCC(N3CCCN(CCO)CC3)CC2)ccc1Nc1ncc2ccc(-c3ccccc3OC)n2n1
7,162 to 163,O=C1c2ccc(F)cc2C(=O)N1c1cc([N+](=O)[O-])c(Cl)cc1F
8,> 300,COc1cccc(OC)c1-c1cc2cnc(N)nc2nc1N
9,130 to 132,COc1cc2c(cc1Cl)CCN(C)CC2c1ccc(I)cc1 (stereo not given)
10,102 to 107,COc1ccc(CNc2cc(N3CCCC3CO)ccc2C(=O)NCc2ncccn2)cc1Cl (stereo not given)
11,122 to 127,Cc1cccc2c(-c3ccccc3)c([N+](=O)[O-])oc12
12,115 to 118,CCOC(=O)c1cnc(CCOC)nc1O
13,136 to 138,CC(=O)Nc1ccc(F)cc1OCc1ccccc1
14,140 to 142,CC(=O)NC[C@H]1CN(c2ccc(N3CCC4(CC3)OCCO4)cc2)C(=O)O1
15,122,"CCN1CCCC1CNC(=O)c1cccc(N(C2CN(C(c3ccc(Cl)cc3)c3ccc(Cl)cc3)C2)S(C)(=O)=O)c1 (single isomer, unassigned; (+))"
16,132 to 134,CC(C)(C#N)c1cc(Cc2cncnc2)cc(C(C)(C)C#N)c1
17,169 to 170,CCN(CC)CCOc1ccc2c(c1)C(=O)c1ccc(OCCN(CC)CC)cc1C2=O
18,123 to 125,O=C(NCCCOc1ccncc1)c1cccs1
19,168 to 170,CC(O)c1cccc(-c2ccc3nc(-c4ccc(Cl)cc4)cn3c2)c1 (stereo not given)
20,112 to 114,CCN[C@@H]1CCCC[C@H]1NS(=O)(=O)c1ccc(C)cc1 (relative stereo)
21,154 to 155,COc1nc(C)nc(NC(=O)NS(=O)(=O)c2ccccc2C=CC(F)(F)F)n1
22,99 to 101,CC=C(c1ccc(N(C)C)cc1)c1ccc(N(C)C)cc1
23,62 to 67,Cc1cc(F)ccc1-c1ccc(S(=O)(=O)N2c3ccccc3CC2C(=O)O)cc1 (stereo not given)

row,Compound,melting point [°C]
1,OC1CC2(CCNC2)c2ccc(F)cc21 (stereo not given),162 to 164
2,Cc1cccc(NC(=O)NC2N=C(c3ccccc3F)c3ccccc3N(CC(=O)NC3C4CC5CC(C4)CC3C5)C2=O)c1 (stereo not given),245 to 246
3,Cc1cccc(NC(=O)c2cc([N+](=O)[O-])ccc2NC(=O)CF)c1C,236 to 239
4,Cc1cccc(N=C2NCCN2)c1,115
5,O=C([C@@H]1C[C@@H]2CCCC[C@@H]2N1)N1CCCC1,83
